The source of these data is US5834458A, “Heterocyclic compounds and their use” (Eli Lilly and Company, priority 1996, dated 1998).

For one assay, the target named is muscarinic acetylcholine receptors. The assay is described as follows: inhibition of specific binding of 3H-Oxotremorine-M (3H-Oxo) to rat cortex. More on the design: species or system rat (male Wistar). Particulars: 3H-Oxotremorine 1.0 nM, 30 min, 25° C., pH 7.4. From the text: The pharmacological properties of the compounds of the invention can be illustrated by determining their capability to inhibit the specific binding of ^3 H-Oxotremorine-M (^3 H-Oxo). Birdsdall N. J. M., Hulme E. C., and Burgen A. S. V. (1980). "The Character of Muscarinic Receptors in Different Regions of the Rat Brain". Proc. Roy. Soc. London (Series B) 207,1.
^3 H-oxo labels muscarinic receptor in the CNS (with a preference for agonist domains of the receptors). Three different sites are labeled by ^3 H-Oxo. […] Using the present experimental conditions only the high and medium affinity sites are determined.
The inhibitory effects of compounds on ^3 H-oxo binding reflects the affinity for muscarinic acetylcholine receptors.
All preparations are performed at 0°-4° C. unless otherwise indicated. Fresh cortex (0.1-1 g) from male Wistar rats (150-250 g) is homogenized for 5-10 s in 10 mL […] Hepes pH: 7.4, with an Ultra-Turrax homogenizer. The homogenizer is rinsed with 10 mL of buffer and the combined suspension centrifuged for 15 min. at 40,000×g. The pellet is washed three times with buffer. In each step the pellet is homogenized as before in 2×10 mL of buffer and centrifuged for 10 min. at 40,000×g.
The final pellet is homogenized in 20 mM Hepes pH: 7.4 (100 mL per g of original tissue) and used for binding assay. Aliquots of 0.5 mL is added 25 μL of test solution and 25 μL of ^3 H-Oxotremorine (1.0 nM, final concentration) mixed and incubated for 30 min. at 25° C. Non-specific binding is determined in triplicate using arecoline (1 μg/mL, final concentration) as the test substance. After incubation samples are added 5 mL of ice-cold buffer and poured directly onto Whatman GF/C glass fiber filters under suction and immediately washed 2 times with 5 mL of ice-cold buffer. The amount of radioactivity on the filters are determined by conventional liquid scintillation counting. Specific binding is total binding minus non specific binding.
Test substances are dissolved in 10 mL water (if necessary heated on a steam-bath for less than 5 min.) at a concentration of 2.2 mg/mL. 25-75% inhibition of specific binding must be obtained before calculation of IC50. The test value will be given as IC50 (the concentration (nM) of the test substance which inhibits the specific binding of ^3 H-oxo by 50%). IC50 =(applied test substance concentration) x([…])nM where Co is specific binding in control assays and Cx is the specific binding in the test assay. (The calculations assume normal mass-action kinetics).
Regarding `CCCCCCSc1nsnc1C1CC2CCC1NC2` (stereo not drawn) [Compound 27, EXO 2-Aza-6-(4-hexylthio-1,2,5-thiadiaz-3-yl)-bicyclo[2.2.2]octane], the IC50 was 3 nM.

In turn, `CCCCCOc1nsnc1C1CC2CCC1NC2` (stereo not drawn) [Compound 31, EXO 2-aza-6-(4-pentoxy-1,2,5-thiadiaz-3-yl)-bicyclo[2.2.2]octane] displayed a half-inhibitory concentration (IC50) of 161 nM. Same read-out and setting: with `N#Cc1ccc(CSc2nsnc2C2CC3CCC2NC3)s1` (stereo not drawn) [Compound 26, EXO 2-Aza-6-(4-((5-cyanothien-2-yl)methylthio)-1,2,5-thiadiaz-3-yl)-bicyclo[2.2.2]octane] the figure was 31 nM; with `CC(C)CCCSc1nsnc1C1CC2CCC1NC2` (stereo not drawn) [Compound 17, EXO 2-Aza-6-(4-((4-methylpentyl)thio)-1,2,5-thiadiaz-3-yl)-bicyclo[2.2.2]octane], 612 nM. Same read-out and setting: with `CCCCCCOc1nsnc1C1CC2CCC1N(C)C2` (single isomer, unassigned) [Compound 7, ENDO 2-Aza-6-(4-hexyloxy-1,2,5-thiadiaz-3-yl)-2-methyl-bicyclo[2.2.2]octane] the figure was 4.8 nM; with `CC(C)CCCSc1nsnc1C1CC2CCC1NC2` (stereo not drawn) [Compound 18, ENDO 2-Aza-6-(4-((4-methylpentyl)thio)-1,2,5-thiadiaz-3-yl)-bicyclo[2.2.2]octane], 17 nM. Same read-out and setting: with `CCCCCOc1nsnc1C1CC2CCC1NC2` (stereo not drawn) [Compound 30, ENDO 2-aza-6-(4-pentoxy-1,2,5-thiadiaz-3-yl)-bicyclo[2.2.2]octane] the figure was 5.9 nM. Turning to `N#Cc1ccc(CSc2nsnc2C2CC3CCC2NC3)s1` (stereo not drawn) [Compound 25, ENDO 2-Aza-6-(4-((5-cyanothien-2-yl)methylthio)-1,2,5-thiadiaz-3-yl)-bicyclo[2.2.2]octane], the IC50 is 5.4 nM. On the same count and under the same terms, the result for `FC(F)(F)c1ccc(COc2nsnc2C2CC3CCC2NC3)cc1` (stereo not drawn) [Compound 32, EXO 2-Aza-6-(4-((4-trifluoromethylphenyl)methoxy)-1,2,5-thiadiaz-3-yl)-bicyclo[2.2.2]octane] reads 335 nM; that for `FC(F)(F)c1ccc(COc2nsnc2C2CC3CCC2NC3)cc1` (stereo not drawn) [Compound 33, EXO 2-Aza-6-(4-((4-trifluoromethylphenyl)methoxy)-1,2,5-thiadiaz-3-yl)-bicyclo[2.2.2]octane], 208 nM. `FC(F)(F)CCCSc1nsnc1C1CC2CCC1NC2` (stereo not drawn) [Compound 20, ENDO 2-Aza-6-(4-((4,4,4-trifluorobutyl)thio)-1,2,5-thiadiaz-3-yl)-bicyclo[2.2.2]octane] displayed an IC50 of 4.8 nM. Same read-out and setting: with `FC(F)(F)c1ccc(CSc2nsnc2C2CC3CCC2NC3)cc1` (stereo not drawn) [Compound 22, EXO 2-Aza-6-(4-(((4-trifluoromethyl)phenyl)methylthio)-1,2,5-thiadiaz-3-yl)-bicyclo[2.2.2]octane] the figure was 680 nM. Consider `CCCCCCSc1nsnc1C1CC2CCC1NC2` (stereo not drawn) [Compound 28, EXO 2-Aza-6-(4-hexylthio-1,2,5-thiadiaz-3-yl)-bicyclo[2.2.2]octane], for which the IC50 was 86 nM. The same measure, in the same setting: with `CCCCCCOc1nsnc1C1CC2CCC1N(C)C2` (single isomer, unassigned) [Compound 8, EXO 2-Aza-6-(4-hexyloxy-1,2,5-thiadiaz-3-yl)-2-methyl-bicyclo[2.2.2]octane] the figure was 277 nM.

A further assay addresses muscarinic receptor in the CNS.
Experiment: not given
The conditions noted are these: first of three sites (high affinity); read-out: affinity of site labeled by ^3 H-Oxo; cited from earlier work.
As for `C[N+](C)(C)CC#CCN1CCCC1=O` [^3 H-Oxo, ^3 H-Oxotremorine-M], the Kd is 1.8 nM.

Still in this assay, the particulars now being: second of three sites (medium affinity); read-out: affinity of site labeled by ^3 H-Oxo; cited from earlier work.
Consider `C[N+](C)(C)CC#CCN1CCCC1=O` [^3 H-Oxo, ^3 H-Oxotremorine-M], for which the Kd is 20 nM.

The assay is the same for the next values; noted with them: third of three sites; not determined under the present experimental conditions; read-out: affinity of site labeled by ^3 H-Oxo; cited from earlier work.
As for `C[N+](C)(C)CC#CCN1CCCC1=O` [^3 H-Oxo, ^3 H-Oxotremorine-M], the Kd is 3000 nM.

By IC50 is commonly meant the concentration that inhibits the measured activity by half.
